Patent publication US20150192589A1, “METHOD USING FLUORESCENT TURN-ON PROBES FOR CELL-SPECIFIC DETECTION” (Agency for Science, Technology and Research, priority 2014, published 2015)

Assays:
esterase [1] = experiment: Selectivity of Lyso-1 fluorescence response, esterase versus interference substances; type: biochemical; details: Lyso-1 10 μM; esterase 0.50 U mL^−1 vs MgCl2, CaCl2, vitamin C, H2O2, BO3−, lysozyme, cathepsin B; PBS pH 7.4, 37° C.
[2] = system: MCF-7 breast cancer cells; experiment: Cell viability by MTT assay; type: cell-based; details: 1, 2, 4, 8, or 16 μM for 24 h
Description: The samples were incubated with 1, 2, 4, 8, or 16 μM Lyso-1 for 24 h, and the cell viabilities are close to 100% under the testing conditions, indicative of low cytotoxicity of the probe.
MCF-7 cancer cells were seeded in 96-well plates at a density of 4×10^4 cells/mL. After 24 h incubation, the cells were exposed to a series of doses of the probe Lyso-1 at 37° C. After the designated time intervals, the sample wells were washed twice with 1×PBS buffer and freshly prepared MTT solution (0.5 mg/mL, 100 μL) in culture medium was added into each sample well. The MTT medium solution was carefully removed after 3 h incubation in the incubator for the sample wells, whereas the control wells without addition of MTT solution were washed twice with 1×PBS buffer. DMSO (100 μL) was then added into each well and the plate was gently shaken for 10 min at room temperature to dissolve all the precipitates formed. The absorbance of individual wells at 570 nm was then monitored by the microplate Reader. The absorbance of MTT in the sample well was determined by the differentiation between the absorbance of the sample well and that of the respective control well. Cell viability was expressed by the ratio of the absorbance of MTT in the sample wells to that of the cells incubated with culture medium only.

lysosomes of MCF-7 cells = experiment: In situ imaging of lysosomal esterase / colocalization with LysoTracker Red; type: cell-based
Description: FIGS. 9A-9H show the colocalization imaging of MCF-7 cells stained with 1.0 μM Lyso-1 and 50 nM LysoTracker®-red for 30 min at 37° C. (FIG. 9A and FIG. 9E) Bright-field image. (FIG. 9B and FIG. 9F) Confocal image from Lyso-1 on channel 1 (λex=405 nm, λem=515-560 nm). (FIG. 9C and FIG. 9G) Confocal image from LysoTracker® Red on channel 2 (λex=559 nm, λem=585-610 nm). (FIG. 9D and FIG. 9H) Merged image of channels 1 and 2. Scale bar=20 μm.
A discrete labeling pattern that matched the distribution of lysosomes was obtained using Lyso-1 (FIG. 9a-d). […] To verify that the probes can selectively target lysosomes, the probe 6 without of lysosome targeting morpholines was also tested for cell imaging as a comparison. […] These experiments clearly verified that Lyso-1 can selectively target lysosome.
MCF-7 cells were seeded at a density of 2×10^4/well in the chamber (LAB-TEK, Chambered Coverglass System) and grown for 18 h at 37° C. in a humidified 5% CO2 incubator. The cells were washed twice with 1×PBS buffer and 0.3 mL fresh serum-free medium containing 1.0 μM Lyso-1 solution was then added to the chamber.
For co-staining between Lyso-1 and LysoTracker® Red, the MCF-7 cells were first incubated with 1.0 μM Lyso-1 solution for 2 h, and then the cells were rinsed and incubated in the medium containing 100 nM Lyso-tracker Red for 1 h.
Lyso-1 was excited at 405 nm (1% laser power) and the fluorescence was collected at 515-560 nm; LysoTracker® Red was excited at 560 nm (18% laser power) and fluorescence was collected at 581-688 nm.

esterase [3] = experiment: Fluorescence response of Lyso-1 upon incubation with esterase; type: biochemical
Description: The measurements were performed in 10 mM PBS (pH 7.4) with λex/em=356/532 nm.
For esterase at 0.50 U mL^−1, the fluorescence increase could reach a plateau in 15 min, which is sigmoidal in shape due to the two-stepwise sequential hydrolysis of Lyso-1 to 2. The fluorescence could only be fully generated after the two-step reaction completed and formation of intramolecular hydrogen bonds. […] The detection limit (3 S/m, in which S is the standard deviation of blank measurements, and m is the slope of the linear equation) is determined to be 2.4×10-3 U mL^−1.
(§1) The UV-vis absorption spectra were obtained using UV-vis spectrometer (Shimadzu, UV-1700, Japan). PL measurements were carried out on a Perkin-Elmer LS-55 equipped with a xenon lamp excitation source and a Hamamatsu (Japan) 928 PMT, using 90° angle detection for solution samples. The cells were imaged by fluorescence microscope (Nikon Al Confocal microscope). The time-dependence fluorescence scans of Lyso-1 were conducted with microplate reader (TECAN). ^1H and ^13C NMR spectra were measured on a Bruker ARX 400 NMR spectrometer. The molecular mass was acquired using ion trap-time-of-flight mass spectrometry (MS-IT-TOF) (Shimadzu).

[4] = system: lysosomal esterase in MCF-7 cells; experiment: Real-time fluorescence imaging of lysosomal esterase activity; type: cell-based
Description: As the incubation time elapses, the fluorescence intensity increases quickly which reaches a maximum at 8 min. The real-time fluorescence images shown in FIG. 12 indicate that the probe is non-fluorescent in the cell culture media.
[…] The intensity images of Lyso-1 were recorded with the emission in the range of 515-560 nm. Excitation wavelength: 405 nm.

[5] = Photostability by continuous confocal scanning of stained cells; type: physicochemical; details: approximately 8 min continuous confocal scanning, stained MCF-7 cells; Lyso-1 1 μM, LysoTracker Red 50 nM
Description: FIGS. 10A-10E show (FIG. 10E) Signal loss (%) of fluorescent emission of Lyso-1 (1 μM) and LysoTracker® Red (50 nM) with increasing time. Excitation wavelength: 405 nm (for Lyso-1) and 560 nm (for LysoTracker® Red); emission filter: 515-560 nm (for Lyso-1) and 581-688 nm (for LysoTracker® Red); (FIGS. 10A-10D) fluorescent images of living MCF-7 cells stained with Lyso-1(1 μM) and LysoTracker® Red (50 nM) at 0 and 5 min.
It has been shown that the signal loss of Lyso-1 is less than 20% in approximately 8 min. In contrast, LysoTracker® Red lost almost approximately 70% of its fluorescence signal.
For Photostability study, MCF-7 cells were stained with 1.0 μM Lyso-1 and LysoTracker® Red for 1 h at 37° C. under 5% CO2. The changes of fluorescence intensity with scan time were determined by CLSM (Zeiss LSM 410, Jena, Germany).
Excitation wavelength: 405 nm (for Lyso-1, 1% laser power) and 560 nm (for LysoTracker® Red, 18% laser power); emission filter: 515-560 nm (for Lyso-1) and 581-688 nm (for LysoTracker® Red). The data were obtained from replicate experiments (n=3).

esterase [6] = experiment: Effect of esterase inhibitor on esterase activity (Lyso-1 fluorescence readout); type: biochemical; details: Lyso-1 10 μM, esterase 0.50 U mL^−1
Description: (§2) For example, the addition of 0.1 mM AEBSF causes a fluorescence decrease in 10% at 532 nm compared with that without AEBSF. The higher concentrations of AEBSF such as 0.4 and 1.0 mM lead to larger fluorescence decrease of 40% and 65%, respectively. […] Thus, the probe Lyso-1 has a use to screen inhibitors of esterase.

esterase in MCF-7 cells = experiment: Esterase activity in living cells by Lyso-1 fluorescence imaging after inhibitor pretreatment; type: cell-based; details: MCF-7 cells pretreated with 0.4 mM
Description: as §2

[7] = Photoluminescence / AIE properties in solvent-water mixtures; type: physicochemical
Excerpt: At ˜532 nm, there is almost no fluorescence for Lyso-1, whereas a strong emission with a 200-fold enhancement is observed for 2 from the keto tautomer ([…]). The weak emission at a short wavelength (λmax=˜441 nm) is from the enol tautomer of 2 (FIG. 1). It is noted that there is almost no overlap between the absorption and emission spectrum for salicyladazine dye 2, which is highly desirable for imaging applications.
With gradual addition of water into THF from fw=0 to 80 vol %, the emission intensity keeps slow increasing. […] At fw=99 vol %, a 14-fold enhancement of emission has been observed as compared to that in THF, showing an obvious AIE effect.
as §1

β-galactosidase = experiment: Hydrolysis of probe by β-galactosidase (fluorescence turn-on); type: biochemical; details: KH2PO4 buffer pH 4.5, 30° C., excitation 365 nm, emission 542 nm
Description: Excited at 365 nm. Fluorescence intensity was measured at 542 nm.
After reaction of the probe with β-galactosidase, compound 9 is obtained.

mitochondria = experiment: Mitochondria imaging; type: cell-based
Description: FIGS. 30A-30C show Colocalization imaging of Hela cells stained with 5.0 μM MitoGreen-2 and 50 nM MitoTracker®-red.
MitoGreen-1 and MitoGreen-2 can be easily modified by adding further reactive groups to detect certain enzymes or bioactive molecules.

Q: What does the source list for `CC(=O)Oc1cc(OCCCCN2CCOCC2)ccc1/C=N/N=C/c1ccc(OCCCCN2CCOCC2)cc1OC(C)=O` [Lyso-1, ((1E,1′E)-hydrazine-1,2-diylidenebis(methanylylidene))bis(3-(4-morpholinobutoxy)-6,1-phenylene) diacetate]?
A: fluorescence induced by esterase relative to interferences (times brighter) (esterase [1]): 70-200 times; cell viability [2]: ~100%; overlap between fluorescence images of probe and LysoTracker Red (lysosomes of MCF-7 cells; MCF-7 cells, 1.0 μM probe, no washing): excellent overlap; fluorescence change without esterase (stability of the probe) (esterase [3]; control without esterase, same period of time, PBS pH 7.4): hardly changes; time for fluorescence increase to reach a plateau (esterase [3]; esterase 0.50 U mL^−1, Lyso-1 10 μM, 10 mM PBS pH 7.4): 15 min; incubation time at which fluorescence intensity reaches a maximum ([4]; 1.0 μM, room temperature): 8 min; signal loss of fluorescent emission [5]: less than 20%

Q: What does the source list for `NCCc1ccc(S(=O)(=O)F)cc1` [AEBSF, 4-(2-aminoethyl)benzenesulfonyl fluoride]?
A: fluorescence decrease at 532 nm compared with that without AEBSF (esterase [6]; 0.1 mM AEBSF): 10%; fluorescence decrease at 532 nm compared with that without AEBSF (esterase [6]; 0.4 mM AEBSF): 40%; fluorescence decrease at 532 nm compared with that without AEBSF (esterase [6]; 1.0 mM AEBSF): 65%; Lyso-1 fluorescence in pretreated cells (esterase in MCF-7 cells): obviously decreased fluorescence

Q: Which results are given for `Oc1cc(OCCCCN2CCOCC2)ccc1/C=N/N=C/c1ccc(OCCCCN2CCOCC2)cc1O` [compound 2, 6,6′-((1E,1′E)-hydrazine-1,2-diylidenebis(methanylylidene))-bis(3-(4-morpholinobutoxy)-phenol)]?
A: quantum yield of keto tautomer emission (printed "0=") ([7]; 10 μM in DMSO/water (1:99 v/v), ~532 nm): 9.6%; emission enhancement at ~532 nm compared with Lyso-1 ([7]; 10 μM in DMSO/water (1:99 v/v), λex=356 nm, keto tautomer emission): 200 fold; enhancement of emission at fw=99 vol % compared to that in THF (AIE effect) ([7]; THF/water, 10 μM, excitation 356 nm): 14 fold

Q: With `CN(C)CCNC(=O)CCc1ccc2n1[B-](F)(F)[N+]1=C(c3ccc[nH]3)C=CC1=C2` [LysoTracker® Red, reference compound] as the compound, how does the “signal loss of fluorescent emission” value [5] read?
A: The value was “approximately 70%”.

Q: Which “fluorescence upon reaction with β-galactosidase” value (β-galactosidase) does the source give for `OCC1O[C@@H](Oc2ccccc2/C=N/N=C/c2ccccc2OC2O[C@H](CO)[C@H](O)[C@H](O)[C@H]2O)C(O)C(O)C1O` (stereo in doubt) [β-gal-1, (2S,3S,4R,5S,6S)-2-(hydroxymethyl)-6-(2-((E)-((E)-(2-(((2R,3R,4S,5R,6R)-3,4,5-trihydroxy-6-(hydroxymethyl)tetrahydro-2H-pyran-2-yl)oxy)benzylidene)hydrazono)methyl)phenoxy)tetrahydro-2H-pyran-3,4,5-triol] here?
A: Its value is “leads to fluorescence”.

Q: Which binding to mitochondria (mitochondria) does the source give for `Oc1cc(OCCCCCC[P+](c2ccccc2)(c2ccccc2)c2ccccc2)ccc1/C=N/N=C/c1ccc(OCCCCCC[P+](c2ccccc2)(c2ccccc2)c2ccccc2)cc1O.[Br-].[Br-]` [MitoGreen-1, (((((1E,1′E)-hydrazine-1,2-diylidenebis(methanylylidene))bis(3-hydroxy-4,1-phenylene))bis(oxy))bis(hexane-6,1-diyl))bis(triphenylphosphonium) bromide] here?
A: Its binding to mitochondria is “bind well to mitochondria”.

Q: Which binding to mitochondria (mitochondria) does the source give for `Oc1cc(OCCCCCC[n+]2ccccc2)ccc1/C=N/N=C/c1ccc(OCCCCCC[n+]2ccccc2)cc1O.[Br-].[Br-]` [MitoGreen-2, 1,1′-(((((1E,1′E)-hydrazine-1,2-diylidenebis(methanylylidene))bis(3-hydroxy-4,1-phenylene))bis(oxy))bis(hexane-6,1-diyl))bis(pyridin-1-ium) bromide] here?
A: The binding to mitochondria was “bind well to mitochondria”.

Q: For `CC(=O)Oc1cc(OCCCCBr)ccc1/C=N/N=C/c1ccc(OCCCCBr)cc1OC(C)=O` [compound 6, ((1E,1′E)-hydrazine-1,2-diylidenebis(methanylylidene))bis(3-(4-bromobutoxy)-6,1-phenylene) diacetate], which fluorescence of cells (lysosomes of MCF-7 cells; MCF-7 cells incubated with 1.0 μM for 2 h) is on record?
A: Its fluorescence of cells is “Very weak fluorescence”.

Q: And the “staining pattern of cells” value (lysosomes of MCF-7 cells; MCF-7 cells incubated with 5.0 μM)?
A: The value was “non-specific staining of the entire cell”.

Q: What about the “time after which probe turns on in the entire cells” value ([4]; 5 μM) of the same compound?
A: Its value is 2 h.
